# Assay results from patent US9375002B2, “5-aminopyrimidine derivatives and use thereof for combating undesired plant growth” (BAYER INTELLECTUAL PROPERTY GMBH, priority 2012, dated 2016).
# Experiments:
# Format in all cases: in vivo
# Echinochloa crus-galli = experiment: Pre-emergence herbicidal effect; conditions: 1280 g/ha, visual assessment after 3 weeks
# Description: (§1) 1. Pre-Emergence Herbicidal Effect and Crop Plant Compatibility Seeds of monocotyledonous and dicotyledonous weed plants and crop plants are placed in wood-fiber pots in sandy loam and covered with soil. The inventive compounds, formulated in the form of wettable powders (WP) or as emulsion concentrates (EC), are then applied to the surface of the covering soil as an aqueous suspension or emulsion at a water application rate of 600 to 800 I/ha (converted) with addition of 0.2% wetting agent. After the treatment, the pots are placed in a greenhouse and kept under good growth conditions for the test plants. The damage to the test plants is assessed visually after a test period of 3 weeks by comparison with untreated controls (herbicidal activity in percent (%): 100% action=the plants have died, 0% action=like control plants). AMARE: Amaranthus retroflexus ECHCG: Echinochloa crus-galli
# Amaranthus retroflexus = experiment: Pre-emergence herbicidal effect; conditions: 1280 g/ha, visual assessment after 3 weeks
# Description: as §1
# Setaria viridis = experiment: Pre-emergence herbicidal effect; conditions: 1280 g/ha, visual assessment after 3 weeks
# Description: as §1, with “POLCO: Polygonum convolvulus SETVI: Setaria viridis” for “AMARE: Amaranthus retroflexus ECHCG: Echinochloa crus-galli”
# Polygonum convolvulus [1] = experiment: Pre-emergence herbicidal effect; conditions: 1280 g/ha, visual assessment after 3 weeks
# Description: as §1, with “POLCO: Polygonum convolvulus SETVI: Setaria viridis” for “AMARE: Amaranthus retroflexus ECHCG: Echinochloa crus-galli”
# Viola tricolor = experiment: Pre-emergence herbicidal effect; conditions: 1280 g/ha, visual assessment after 3 weeks
# Description: as §1, with “VIOTR: Viola tricolor” for “AMARE: Amaranthus retroflexus ECHCG: Echinochloa crus-galli”
# Polygonum convolvulus [2] = experiment: Post-emergence herbicidal effect; conditions: 1280 g/ha, visual rating after about 3 weeks
# Procedure: (§2) POLCO: Polygonum convolvulus SETVI: Setaria viridis 2. Post-Emergence Herbicidal Effect and Crop Plant Compatibility Seeds of monocotyledonous and dicotyledonous weed and crop plants are placed in sandy loam in wood-fiber pots, covered with soil and cultivated in a greenhouse under good growth conditions. 2 to 3 weeks after sowing, the test plants are treated at the one-leaf stage. The compounds according to the invention, formulated in the form of wettable powders (WP) or as emulsion concentrates (EC), are then sprayed as aqueous suspension or emulsion at a water application rate of 600 to 800 I/ha (converted) with the addition of 0.2% of wetting agent onto the green parts of the plants. After the test plants have been kept in the greenhouse under optimum growth conditions for about 3 weeks, the activity of the preparations is rated visually in comparison to untreated controls (herbicidal activity in percent (%): 100% activity=the plants have died, 0% activity=like control plants).
# Matricaria inodora = experiment: Pre-emergence herbicidal effect; conditions: 1280 g/ha, visual assessment after 3 weeks
# Description: as §1, with “LOLMU: Lolium multiflorum MATIN: Matricaria inodora” for “AMARE: Amaranthus retroflexus ECHCG: Echinochloa crus-galli”
# Lolium multiflorum = experiment: Pre-emergence herbicidal effect; conditions: 1280 g/ha, visual assessment after 3 weeks
# Description: as §1, with “LOLMU: Lolium multiflorum MATIN: Matricaria inodora” for “AMARE: Amaranthus retroflexus ECHCG: Echinochloa crus-galli”
# Abutilon theophrasti = experiment: Post-emergence herbicidal effect; conditions: 1280 g/ha, visual rating after about 3 weeks
# Procedure: as §2, with “ABUTH: Abutilon theophrasti ALOMY: Alopecurus myosuroides” for “POLCO: Polygonum convolvulus SETVI: Setaria viridis”
# Stellaria media = experiment: Pre-emergence herbicidal effect; conditions: 1280 g/ha, visual assessment after 3 weeks
# Description: as §1, with “STEME: Stellaria media VERPE: Veronica persica” for “AMARE: Amaranthus retroflexus ECHCG: Echinochloa crus-galli”
# Veronica persica = experiment: Pre-emergence herbicidal effect; conditions: 1280 g/ha, visual assessment after 3 weeks
# Description: as §1, with “STEME: Stellaria media VERPE: Veronica persica” for “AMARE: Amaranthus retroflexus ECHCG: Echinochloa crus-galli”
SMILES,herbicidal activity ECHCG (Echinochloa crus-galli) [%],herbicidal activity AMARE (Amaranthus retroflexus) [%],herbicidal activity SETVI (Setaria viridis) [%],herbicidal activity POLCO (Polygonum convolvulus [1]) [%],herbicidal activity VIOTR (Viola tricolor) [%],herbicidal activity POLCO (Polygonum convolvulus [2]) [%],herbicidal activity MATIN (Matricaria inodora) [%],herbicidal activity LOLMU (Lolium multiflorum) [%],herbicidal activity ABUTH (Abutilon theophrasti) [%],herbicidal activity STEME (Stellaria media) [%],herbicidal activity VERPE (Veronica persica) [%]
CCc1ccc2c(c1)C(Nc1cnc(S(C)(=O)=O)nc1C(=O)O)CCO2 (racemic) [compound 68],100,100,100,100,100,80,100,90,90,100,100
Cc1ccc2c(c1)[C@H](Nc1cnc(S(C)(=O)=O)nc1)[C@@H](C)C2 [compound 134],100,100,100,100,100,90,100,100,90,100,100
CCc1ccc2c(c1)C(Nc1cnc(S(C)(=O)=O)nc1)CCO2 (racemic) [compound 65],100,100,100,100,100,80,100,90,90,100,100
